BindingDB's records for doi:10.1016/j.bmcl.2006.12.076 (Glaxosmithkline, 2007)

Experiments:
[1] = Antagonist activity at human recombinant CCR8 expressed in HUT78 cells assessed as I309-mediated migration by chemotaxis assay
[2] = Antagonist activity at human recombinant CCR8 expressed in Th2 cells assessed as I309 mediated migration by chemotaxis assay

**Q.** With COc1ccc2nccc([C@@H]3CN(C4CCN(Cc5cc6ccccc6[nH]5)CC4)C(=O)O3)c2c1 [SB-649701] as the compound, how does the IC50 [1] read?
**A.** 501 nM

**Q.** And the IC50 [2]?
**A.** 100 nM
